The test system of data set [1] is male Sprague-Dawley rats. To be noted: for substitution for phenyzoline discriminative stimulus: full ≥ 80%, partial ≥ 60% and < 80% training drug-appropriate responding; for antagonism of the discriminative stimulus effects of phenyzoline: 10-min pretreatment, dose ratio 95% CLs included 1.
The subject of a further data set is rats. As to conditions: rat, in vivo; cited from earlier work.
Data set [2] deals with male Sprague-Dawley rats. To be noted: for substitution for BU224 discriminative stimulus: full ≥ 80%, partial ≥ 60% and < 80% training drug-appropriate responding; for antagonism of the discriminative stimulus effects of BU224: 10-min pretreatment, dose ratio 95% CLs included 1.
The subject of data set [3] is rats discriminating 2-BFI. As to conditions: ref MacInnes and Handley, 2002, Jordan et al., 1996; cited from earlier work.
In the next data set the target is I2 receptors. As to conditions: cited from earlier work.

Structures are written as SMILES. pIC50: −log10 of the molar value.

In the case of `Cl.c1ccc2oc(C3=NCCN3)cc2c1` [2-BFI, 2-(2-Benzofuranyl)-2-imidazoline hydrochloride], the “substitution for phenyzoline discriminative stimulus” value in the data set on male Sprague-Dawley rats [1] is “only partially substituted”. Besides, the “dose that significantly suppresses food-maintained operant responding” value with rats is given as 10 mg/kg. Further, the “substitution for BU224 discriminative stimulus” value with male Sprague-Dawley rats [2] is given as “fully substituted”.
In the case of `Cl.c1ccc2nc(C3=NCCN3)ccc2c1` [BU224, 2-(4,5-Dihydroimidazol-2-yl) quinoline hydrochloride], the “substitution for phenyzoline discriminative stimulus” value in the data set on male Sprague-Dawley rats [1] is “completely substituted”. Further, the “dose that significantly suppresses food-maintained operant responding” value in the data set on rats is recorded as 17.8 mg/kg. Moreover, the “substitution for 2-BFI discriminative stimulus” value in data set [3] is given as “fully substituted”. The “duration of discriminative stimulus effects” value with male Sprague-Dawley rats [2] (5.6 mg/kg BU224 i.p.) came to 120 min. Also, the “effect on response rate” value in the data set with male Sprague-Dawley rats [2] (rat, in vivo) is listed as “without significantly altering response rate”.
Take `c1ccc(-c2ncc3cc(-n4ccnc4)ccc3n2)cc1` [CR4056, 2-phenyl-6-(1H-imidazol-1-yl) quinazoline]: the pIC50 on I2 receptors (read-out: IC50 at I2 receptor, ref Ferrari et al., 2011) was 6.22.
For `COc1cccc([C@H](O)C2CCN(CCc3ccc(F)cc3)CC2)c1OC` [MDL100907, (R)-(2,3-dimethoxyphenyl)-[1-[2-(4-fluorophenyl)ethyl]-4-piperidyl] methanol], in the data set with male Sprague-Dawley rats [1], the “antagonism of the discriminative stimulus effects of phenyzoline” value was “failed to antagonize”. Also, the “antagonism of the discriminative stimulus effects of BU224” value with male Sprague-Dawley rats [2] is given as “failed to antagonize”.
In the case of `Clc1cccc2c1CN(C1=NCCN1)C2` [RS45041, 4-chloro-2-(imidazolin-2-yl) isoindoline], the “selectivity for I2 receptors over adrenoceptors, dopamine, 5-HT, muscarinic receptors and dihydropyridine binding sites” value in the data set on I2 receptors (ref Brown et al., 1995) was greater than 1000 fold. For the same compound, the “phenyzoline-appropriate (drug-associated lever) responding, maximum” value in the data set on male Sprague-Dawley rats [1] (substitution test in rats discriminating 32 mg/kg phenyzoline) is given as greater than 80%. The “BU224-appropriate (drug-associated lever) responding, maximum” value in the data set with male Sprague-Dawley rats [2] (substitution test in rats discriminating 5.6 mg/kg BU224) was greater than 80%.
Regarding `NCCCCN=C(N)N` [agmatine], the “substitution for BU224 discriminative stimulus” value in the data set on male Sprague-Dawley rats [2] is listed as “partial or less substitution”.
Regarding `Clc1cccc(Cl)c1N=C1NCCN1` [clonidine], in the data set with male Sprague-Dawley rats [1], the “substitution for phenyzoline discriminative stimulus” value is listed as “partial substitution”. The “substitution for BU224 discriminative stimulus” value in the data set with male Sprague-Dawley rats [2] is listed as “partial or less substitution”.
As for `O=C(CCCN1CCC(O)(c2ccc(Cl)cc2)CC1)c1ccc(F)cc1` [haloperidol], the “antagonism of the discriminative stimulus effects of phenyzoline” value with male Sprague-Dawley rats [1] is listed as “failed to antagonize”. The “antagonism of the discriminative stimulus effects of BU224” value with male Sprague-Dawley rats [2] is “failed to antagonize”.
On to `COc1ccc2c3c([nH]c2c1)C(C)=NCC3` [harmaline], for which, in data set [3], the “substitution for 2-BFI discriminative stimulus” value is “fully substitute”.

A word on the pIC50: it is the IC50 on a negative log10 scale, so that one unit is a factor of ten.

The values are drawn from article PMC4331254 (European journal of pharmacology, 2015).
